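Each compound was tested at five concentrations against cells in 96-well plates for 48 hours. TGI: total growth inhibition.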
Columns and labels:
Assay in all cases: inhibition of tumour cell growth, NCI panel, 48 h
ACHN renal = system: ACHN renal
SR leukemia = system: SR leukemia
SK-OV-3 ovarian = system: SK-OV-3 ovarian
OVCAR-5 ovarian = system: OVCAR-5 ovarian
MALME-3M melanoma = system: MALME-3M melanoma
A549 NSCLC = system: A549 NSCLC
SF-268 CNS = system: SF-268 CNS
RXF 393 renal = system: RXF 393 renal
SNB-75 CNS = system: SNB-75 CNS
OVCAR-3 ovarian = system: OVCAR-3 ovarian
KM12 colon = system: KM12 colon
NCI-H23 lung = system: NCI-H23 lung
IGROV1 ovarian = system: IGROV1 ovarian
SN12C renal = system: SN12C renal
NCI-H226 lung = system: NCI-H226 lung
PC-3 prostate = system: PC-3 prostate
SK-MEL-2 melanoma = system: SK-MEL-2 melanoma
786-0 renal = system: 786-0 renal
OVCAR-8 ovarian = system: OVCAR-8 ovarian
SF-539 CNS = system: SF-539 CNS
NCI-H522 lung = system: NCI-H522 lung
U251 CNS = system: U251 CNS
MOLT-4 leukemia = system: MOLT-4 leukemia
OVCAR-4 ovarian = system: OVCAR-4 ovarian
CAKI-1 renal = system: CAKI-1 renal
HCT-15 colon = system: HCT-15 colon
UACC-257 melanoma = system: UACC-257 melanoma
HL-60(TB) leukemia = system: HL-60(TB) leukemia
SK-MEL-5 melanoma = system: SK-MEL-5 melanoma
SK-MEL-28 melanoma = system: SK-MEL-28 melanoma
EKVX NSCLC = system: EKVX NSCLC
TK-10 renal = system: TK-10 renal
DU-145 prostate = system: DU-145 prostate
SW-620 colon = system: SW-620 colon
M14 melanoma = system: M14 melanoma
HCT-116 colon = system: HCT-116 colon
HCC-2998 colon = system: HCC-2998 colon
CCRF-CEM leukemia = system: CCRF-CEM leukemia
SNB-19 CNS = system: SNB-19 CNS
MDA-N = system: MDA-N
BT-549 breast = system: BT-549 breast
COLO 205 colon = system: COLO 205 colon
RPMI-8226 leukemia = system: RPMI-8226 leukemia
HOP-62 NSCLC = system: HOP-62 NSCLC
NCI/ADR-RES ovarian = system: NCI/ADR-RES ovarian
MCF7 breast = system: MCF7 breast
UO-31 renal = system: UO-31 renal
HOP-92 NSCLC = system: HOP-92 NSCLC
UACC-62 melanoma = system: UACC-62 melanoma
MDA-MB-435 = system: MDA-MB-435
A498 renal = system: A498 renal
LOX IMVI melanoma = system: LOX IMVI melanoma
MDA-MB-231 breast = system: MDA-MB-231 breast
NCI-H460 lung = system: NCI-H460 lung
HS 578T breast = system: HS 578T breast
T-47D breast = system: T-47D breast
HT29 colon = system: HT29 colon
K-562 leukemia = system: K-562 leukemia
SF-295 CNS = system: SF-295 CNS

SMILES: Cc1ccc2nc(C=Nc3ccccc3Cl)cc(C)c2c1
- TGI (ACHN renal): > 100 µM
- TGI (SR leukemia): 26.6 µM
- TGI (SK-OV-3 ovarian): > 100 µM
- TGI (OVCAR-5 ovarian): > 100 µM
- TGI (MALME-3M melanoma): 61.9 µM
- TGI (A549 NSCLC): > 100 µM
- TGI (SF-268 CNS): 40 µM
- TGI (RXF 393 renal): 29.6 µM
- TGI (SNB-75 CNS): 56.2 µM
- TGI (OVCAR-3 ovarian): 35.4 µM
- TGI (KM12 colon): 35.9 µM
- TGI (NCI-H23 lung): 46.4 µM
- TGI (IGROV1 ovarian): 36.7 µM
- TGI (SN12C renal): 28.6 µM
- TGI (NCI-H226 lung): 48.8 µM
- TGI (PC-3 prostate): > 100 µM
- TGI (SK-MEL-2 melanoma): > 100 µM
- TGI (786-0 renal): 33.2 µM
- TGI (OVCAR-8 ovarian): 29.9 µM
- TGI (SF-539 CNS): 33.7 µM
- TGI (NCI-H522 lung): 47.2 µM
- TGI (U251 CNS): 37.7 µM
- TGI (MOLT-4 leukemia): 35.1 µM
- TGI (OVCAR-4 ovarian): 92.9 µM
- TGI (CAKI-1 renal): > 100 µM
- TGI (HCT-15 colon): 38.1 µM
- TGI (UACC-257 melanoma): 30.6 µM
- TGI (HL-60(TB) leukemia): 18.4 µM
- TGI (SK-MEL-5 melanoma): 29.5 µM
- TGI (SK-MEL-28 melanoma): 42 µM
- TGI (EKVX NSCLC): > 100 µM
- TGI (TK-10 renal): 98.7 µM
- TGI (DU-145 prostate): > 100 µM
- TGI (SW-620 colon): 28.5 µM
- TGI (M14 melanoma): 35.1 µM
- TGI (HCT-116 colon): 16.3 µM
- TGI (HCC-2998 colon): > 100 µM
- TGI (CCRF-CEM leukemia): 52.8 µM
- TGI (SNB-19 CNS): > 100 µM
- TGI (MDA-N): 23.8 µM
- TGI (BT-549 breast): 30.1 µM
- TGI (COLO 205 colon): > 100 µM
- TGI (RPMI-8226 leukemia): > 100000 nM
- TGI (HOP-62 NSCLC): > 100 µM
- TGI (NCI/ADR-RES ovarian): 40.2 µM
- TGI (MCF7 breast): 46.8 µM
- TGI (UO-31 renal): 35.5 µM
- TGI (HOP-92 NSCLC): 83 µM
- TGI (UACC-62 melanoma): 30.4 µM
- TGI (MDA-MB-435): 28.5 µM
- TGI (A498 renal): > 100 µM
- TGI (LOX IMVI melanoma): 22.6 µM
- TGI (MDA-MB-231 breast): 35.6 µM
- TGI (NCI-H460 lung): 38.6 µM
- TGI (HS 578T breast): 81.2 µM
- TGI (T-47D breast): 47.4 µM
- TGI (HT29 colon): 36.8 µM
- TGI (K-562 leukemia): > 100 µM
- TGI (SF-295 CNS): 47.2 µM

SMILES: O=C1C[C@H](Sc2ccccc2)C2(OCCO2)[C@H]2ON3CCC[C@@H]3[C@@H]12
- TGI (ACHN renal): 5.55 µM
- TGI (SR leukemia): 1.95 µM
- TGI (SK-OV-3 ovarian): 11.4 µM
- TGI (OVCAR-5 ovarian): 7.8 µM
- TGI (MALME-3M melanoma): 4.01 µM
- TGI (A549 NSCLC): 13 µM
- TGI (SF-268 CNS): 7.25 µM
- TGI (RXF 393 renal): 11 µM
- TGI (SNB-75 CNS): 11.5 µM
- TGI (OVCAR-3 ovarian): 2.75 µM
- TGI (KM12 colon): 2.87 µM
- TGI (NCI-H23 lung): 7.12 µM
- TGI (IGROV1 ovarian): 2.46 µM
- TGI (SN12C renal): 6.29 µM
- TGI (NCI-H226 lung): 26.7 µM
- TGI (PC-3 prostate): 13 µM
- TGI (SK-MEL-2 melanoma): 13.8 µM
- TGI (786-0 renal): 4.98 µM
- TGI (OVCAR-8 ovarian): 11.5 µM
- TGI (SF-539 CNS): 7.9 µM
- TGI (NCI-H522 lung): 2.08 µM
- TGI (U251 CNS): 6.66 µM
- TGI (MOLT-4 leukemia): 1.85 µM
- TGI (OVCAR-4 ovarian): 9.14 µM
- TGI (CAKI-1 renal): 7.13 µM
- TGI (HCT-15 colon): 4.42 µM
- TGI (UACC-257 melanoma): 8.71 µM
- TGI (HL-60(TB) leukemia): 3.67 µM
- TGI (SK-MEL-5 melanoma): 21.6 µM
- TGI (SK-MEL-28 melanoma): 7.55 µM
- TGI (EKVX NSCLC): 9.64 µM
- TGI (TK-10 renal): 13.3 µM
- TGI (DU-145 prostate): 6.95 µM
- TGI (SW-620 colon): 5.82 µM
- TGI (M14 melanoma): 7.19 µM
- TGI (HCT-116 colon): 2.88 µM
- TGI (HCC-2998 colon): 6.69 µM
- TGI (CCRF-CEM leukemia): 0.829 µM
- TGI (SNB-19 CNS): 19.6 µM
- TGI (MDA-N): 13.3 µM
- TGI (BT-549 breast): 16.2 µM
- TGI (COLO 205 colon): 5.31 µM
- TGI (RPMI-8226 leukemia): 1330 nM
- TGI (HOP-62 NSCLC): 5.29 µM
- TGI (NCI/ADR-RES ovarian): 30.8 µM
- TGI (MCF7 breast): 3.16 µM
- TGI (UO-31 renal): 3.61 µM
- TGI (HOP-92 NSCLC): 3.92 µM
- TGI (UACC-62 melanoma): 3.77 µM
- TGI (MDA-MB-435): 3.9 µM
- TGI (A498 renal): 27.9 µM
- TGI (LOX IMVI melanoma): 3.05 µM
- TGI (MDA-MB-231 breast): 10.9 µM
- TGI (NCI-H460 lung): 9.55 µM
- TGI (HS 578T breast): > 39 µM
- TGI (T-47D breast): 7.17 µM
- TGI (HT29 colon): 2.81 µM
- TGI (K-562 leukemia): 8.11 µM
- TGI (SF-295 CNS): 14.4 µM

Reference: PubChem BioAssay (NCI)
